{"source": "patent US20210299101A1", "about": "“SYSTEMS, METHODS, AND KITS FOR DIAGNOSTICS AND TREATMENT OF VIRAL RESPIRATORY INFECTION” (priority 2020, published 2021)", "key": {"SARS-CoV-2 [1]": {"test_system": "SARS-CoV-2", "format": "in vivo", "settings": "1 admitted patient (standard care average 3.6)"}, "SARS-CoV-2 [2]": {"test_system": "SARS-CoV-2", "assay": "Example 3: double-blinded placebo controlled prophylaxis study in male health care workers, SARS-CoV-2 test at day 28", "format": "in vivo, human", "settings": "750 mg/day oral, of 18 male health care workers negative at baseline (placebo 3 of 10)"}, "furin": {"test_system": "furin", "settings": "human hepatoma cell lines (Chen et al. 2008); cited from earlier work"}, "SARS-CoV-2 [3]": {"test_system": "SARS-CoV-2", "assay": "Example 23: open label study in hospitalized male and female SARS-CoV-2 patients, survival", "format": "in vivo, human", "settings": "average of 28 days of treatment; 80 mg qd; 31 hospitalized male and female patients, score 6 on 8 point COVID-19 ordinal scale (subjects not in study 3%)"}, "SARS-CoV-2 [4]": {"test_system": "SARS-CoV-2", "assay": "Example 22: double-blinded placebo controlled study in hospitalized female SARS-CoV-2 patients, survival", "format": "in vivo, human", "settings": "following 14 days of treatment; 80 mg qd; 15 hospitalized female patients, score 4-6 on 8 point COVID-19 ordinal scale (control group 67%)", "method": "The patients were taking birth control and agreed not to engage in unprotected sex for at least 90 days post last dosing. None of the women were lactating.\n15 subjects were assigned to HC-1119 treatment 80 mg qd. The other 13 subjects received standard treatment+HC-1119 placebo."}, "SARS-CoV-2 [5]": {"test_system": "SARS-CoV-2", "assay": "Example 21: double-blinded placebo controlled study in hospitalized male SARS-CoV-2 patients, survival at day 14", "format": "in vivo, human", "settings": "following 14 days of treatment; 80 mg qd; 15 hospitalized male patients, score 4-6 on 8 point COVID-19 ordinal scale (control group 55%)", "method": "The primary outcome was survival at day 14.\n15 subjects were assigned to HC-1119 treatment 80 mg qd. The other 15 subjects received standard treatment+HC-1119 placebo."}, "SARS-CoV-2 [6]": {"test_system": "SARS-CoV-2", "assay": "Example 24: double-blinded placebo controlled study in COVID-19 outpatients, rate of hospitalization at day 14", "format": "in vivo, human", "settings": "following 14 days of treatment; 80 mg qd; 28 male and female outpatients, score 1-2 on 8 point COVID-19 ordinal scale (control group 20%)", "method": "The primary outcome was the rate of hospitalization at day 14.\n28 subjects were assigned to HC-1119 treatment 80 mg qd. The other 28 subjects received standard treatment+HC-1119 placebo. Following 14 days of treatment, 1% of the subjects in the HC-1119 were hospitalized compared to 20% of the subjects in the control group were hospitalzied."}, "SARS-CoV-2 [7]": {"test_system": "SARS-CoV-2", "assay": "Example 7: double-blinded placebo controlled study in hospitalized male SARS-CoV-2 patients, survival", "format": "in vivo, human", "settings": "following 15 days of treatment; injection 300 mg; 60 hospitalized male patients (control group 64%)", "method": "60 subjects were given an injection of cyproterone acetate (300 mg). The other 53 subjects received standard treatment. Following 15 days of treatment, 84% of the subjects in the cyproterone acetate survived while 64% of the control group survived."}, "SARS-CoV-2 [8]": {"test_system": "SARS-CoV-2", "assay": "Example 5: double-blinded placebo controlled prophylaxis study in male health care workers, SARS-CoV-2 test at day 28", "format": "in vivo, human", "settings": "0.25 mg/day oral"}, "[9]": {"test_system": "fetal pulmonary surfactant production", "settings": "rabbits, males and females; cited from earlier work"}, "SARS-CoV-2 [10]": {"test_system": "SARS-CoV-2", "format": "in vivo, human", "settings": "3 admitted patients (standard care 4.0)", "method": "Example 19: A controlled study was conducted on 90 male patients with average age of 51 years old. […] The treatment arm was prescribed nilutamide (300 mg) orally once daily at the start of the trial, the control arm received standard care.\nThe patients BCRSS score was 1.3."}, "SARS-CoV-2 [11]": {"test_system": "SARS-CoV-2", "assay": "Example 4: double-blinded placebo controlled study in hospitalized male SARS-CoV-2 patients, survival", "format": "in vivo, human", "settings": "following 15 days of treatment; 160 mg qd; 15 hospitalized male patients (control group 7%)", "method": "15 subjects were assigned to enzalutamide treatment 160 mg qd. The other 15 subjects received standard treatment. Following 15 days of treatment, 20% of the subjects in the enzalutamide survived while 7% of the control group survived."}, "SARS-CoV-2 [12]": {"test_system": "SARS-CoV-2", "assay": "Example 2: double-blinded placebo controlled prophylaxis study in health care workers, SARS-CoV-2 test at day 28", "settings": "10 mg/Kg/day oral, of 50 male and female health care workers negative at baseline (placebo 9 of 47)", "protocol": "Example 2: A double-blinded placebo controlled study was conducted on 97 male and female health care workers working at two hospital emergency room departments.\nAt baseline, all subjects were tested negative for SARS-CoV-2 infection. […] The reminder 47 subjects were given a placebo oral pill. At day 28 all subjects were tested for SARS-CoV-2 infection."}}, "data": [{"smiles": "CC(O)c1cc(C(=O)N[C@@H](C)Cn2ccc(-c3ccc(C#N)c(Cl)c3)n2)[nH]n1", "note": "(some centres unmarked) [darolutamide]", "values": [{"measurement": "BCRSS score of the admitted patient", "setting": "SARS-CoV-2 [1]", "result": 2}]}, {"smiles": "CC(C)C(=O)Nc1ccc([N+](=O)[O-])c(C(F)(F)F)c1", "note": "[flutamide]", "values": [{"measurement": "subjects tested positive for SARS-CoV-2", "setting": "SARS-CoV-2 [2]", "result": 1, "unit": "subject"}]}, {"smiles": "N[C@@H](Cc1cc(I)c(Oc2ccc(O)c(I)c2)c(I)c1)C(=O)O", "note": "[thyroid hormone T3]", "values": [{"measurement": "furin expression", "setting": "furin", "result": "up-regulated"}]}, {"smiles": "[2H]C([2H])([2H])NC(=O)c1ccc(N2C(=S)N(c3ccc(C#N)c(C(F)(F)F)c3)C(=O)C2(C)C)cc1F", "note": "[HC-1119]", "values": [{"measurement": "subjects survived", "setting": "SARS-CoV-2 [3]", "result": 72, "unit": "%"}, {"measurement": "subjects survived", "setting": "SARS-CoV-2 [4]", "result": 91.8, "unit": "%"}, {"measurement": "subjects survived", "setting": "SARS-CoV-2 [5]", "result": 96.3, "unit": "%"}, {"measurement": "subjects hospitalized", "setting": "SARS-CoV-2 [6]", "result": 1, "unit": "%"}]}, {"smiles": "CC(=O)O[C@]1(C(C)=O)CC[C@H]2[C@@H]3C=C(Cl)C4=CC(=O)[C@@H]5C[C@@H]5[C@]4(C)[C@H]3CC[C@@]21C", "note": "[cyproterone acetate]", "values": [{"measurement": "subjects survived", "setting": "SARS-CoV-2 [7]", "result": 84, "unit": "%"}]}, {"smiles": "C[C@]12C=CC(=O)N[C@@H]1CC[C@@H]1[C@@H]2CC[C@]2(C)[C@@H](C(=O)Nc3cc(C(F)(F)F)ccc3C(F)(F)F)CC[C@@H]12", "note": "[dutasteride]", "values": [{"measurement": "subjects tested positive for SARS-CoV-2 (percent)", "setting": "SARS-CoV-2 [8]; 68 male health care workers (placebo 17%)", "result": 4.4, "unit": "%"}, {"measurement": "subjects tested positive for SARS-CoV-2 (number)", "setting": "SARS-CoV-2 [8]; of 68 male health care workers negative at baseline (placebo 9 of 53)", "result": 3, "unit": "subject"}]}, {"smiles": "C[C@]12CCC(=O)C[C@@H]1CC[C@@H]1[C@@H]2CC[C@]2(C)[C@@H](O)CC[C@@H]12", "note": "[dihydrotestosterone]", "values": [{"measurement": "effect on fetal pulmonary surfactant production", "setting": "[9]", "result": "inhibit fetal pulmonary surfactant production"}]}, {"smiles": "CC1(C)NC(=O)N(c2ccc([N+](=O)[O-])c(C(F)(F)F)c2)C1=O", "note": "[nilutamide]", "values": [{"measurement": "BCRSS score of admitted patients", "setting": "SARS-CoV-2 [10]", "result": 1.3}]}, {"smiles": "CNC(=O)c1ccc(N2C(=S)N(c3ccc(C#N)c(C(F)(F)F)c3)C(=O)C2(C)C)cc1F", "note": "[enzalutamide]", "values": [{"measurement": "subjects survived", "setting": "SARS-CoV-2 [11]", "result": 20, "unit": "%"}]}, {"smiles": "C=C(C)[C@@H]1CCC(C)=C[C@H]1c1c(O)cc(CCCCC)cc1O", "note": "[cannabidiol]", "values": [{"measurement": "subjects tested positive for SARS-CoV-2", "setting": "SARS-CoV-2 [12]", "result": 2, "unit": "subjects"}]}]}
